Assays:
[1] = molecular target: CSF1R (FMS) (Homo sapiens, UniProt P07333); experiment: Invitrogen SelectScreen kinase profiling / IC50; format: biochemical
Method: (§1) The FLT3 and VEGFR1/2 Kinase-Glo kinase assays were performed as reported by our earlier study. The VEGFR3 activity analysis was conducted using the same protocol described in the VEGFR1/2 assay. The kinase inhibition profiling and inhibitory activity of FLT3-D835Y, CSF1R, and TRKA were determined by Invitrogen SelectScreen® kinase profiling service (Carlsbad, California, USA).
(§2) BPR1J-340, a urea-substituted 3-phenyl-1H-5-pyrazolylamine-based compound, was designed through chemical modification of sulfonamide series of derivatives (BPR1J-097 series) by a structure-activity relationship (SAR) study (Fig. 1), [32]. For kinase inhibition specificity screening, BPR1J-340 was tested against 59 protein kinases covering the major oncogenic kinases of human protein kinome. […] In addition, BPR1J-340 inhibited TRKA, which is associated with the growth and metastasis of breast cancers, with an IC50 value of 8 nM. Given the high similarity of the ATP binding pockets of FLT3 and the Aurora kinases, the inhibitory activity toward Aurora A and Aurora B were measured. […] Taken together, BPRJ-340 is a selective kinase inhibitor with in vitro activity against FLT3, VEGFR2, VEGFR3 and TRKA receptor tyrosine kinases.

[2] = molecular target: NTRK1 (TRKA) (Homo sapiens, UniProt P04629); experiment: Invitrogen SelectScreen kinase profiling / IC50; format: biochemical
Method: as §1, §2

[3] = tested on: STAT5 phosphorylation at Tyr694; experiment: STAT5 phosphorylation at Tyr694 in MOLM-13 cells, Western blot; format: cell-based, human; conditions: MOLM-13, 20 hours, Fig. 4D
Method: Cells were lysed in lysis buffer (50 mM Tris, pH 8.0, 150 mM NaCl, 1% Triton X-100, 0.5% sodium deoxycholate, 0.1% SDS, 1 mM sodium orthovanadate, 1 mM PMSF, and 1 mM DTT). Protein lysates were resolved by SDS-PAGE and transferred onto a polyvinylidene difluoride (PVDF) membrane (Millipore, Bedford, MA, USA). The membranes were immunoblotted with appropriate antibodies and detected using the SuperSignal reagent (Pierce, Rockford, IL, USA) followed by exposure to X-ray film.
Some histone deacetylase inhibitors (HDACi) will enhance the cytotoxic activity of FLT3 inhibitor on FLT3-ITD^+ cell via degradation of FLT3-ITD and STAT5 [24], [26], [36], [37]. To determine whether SAHA, an HDACi, can synergize with BPR1J-340 to enhance cytotoxicity in FLT3-ITD expressing cells by interfering with the FLT3-ITD and STAT5 axis, the combined effects of SAHA and BPR1J-340 on cytotoxicity were examined. The cell growth rate of MOLM-13 and MV4;11 with SAHA and BPR1J-340 combinational treatment was decreased compared with the single-drug treatment (Fig. 4A). […]
Figure 4 The effect of BPR1J-340 and SAHA versus drug combination on AML FLT3-ITD+ cells. […] (A) Viable cells were counted after staining with trypan blue dye at indicated time point (B) At 48-hours after treatment, cells were stained with FITC-labeled annexin V and propidium iodide and percentages of apoptotic cells were analyzed by flow cytometry. […]

Sequence of CSF1R (FMS) (P07333 20-972): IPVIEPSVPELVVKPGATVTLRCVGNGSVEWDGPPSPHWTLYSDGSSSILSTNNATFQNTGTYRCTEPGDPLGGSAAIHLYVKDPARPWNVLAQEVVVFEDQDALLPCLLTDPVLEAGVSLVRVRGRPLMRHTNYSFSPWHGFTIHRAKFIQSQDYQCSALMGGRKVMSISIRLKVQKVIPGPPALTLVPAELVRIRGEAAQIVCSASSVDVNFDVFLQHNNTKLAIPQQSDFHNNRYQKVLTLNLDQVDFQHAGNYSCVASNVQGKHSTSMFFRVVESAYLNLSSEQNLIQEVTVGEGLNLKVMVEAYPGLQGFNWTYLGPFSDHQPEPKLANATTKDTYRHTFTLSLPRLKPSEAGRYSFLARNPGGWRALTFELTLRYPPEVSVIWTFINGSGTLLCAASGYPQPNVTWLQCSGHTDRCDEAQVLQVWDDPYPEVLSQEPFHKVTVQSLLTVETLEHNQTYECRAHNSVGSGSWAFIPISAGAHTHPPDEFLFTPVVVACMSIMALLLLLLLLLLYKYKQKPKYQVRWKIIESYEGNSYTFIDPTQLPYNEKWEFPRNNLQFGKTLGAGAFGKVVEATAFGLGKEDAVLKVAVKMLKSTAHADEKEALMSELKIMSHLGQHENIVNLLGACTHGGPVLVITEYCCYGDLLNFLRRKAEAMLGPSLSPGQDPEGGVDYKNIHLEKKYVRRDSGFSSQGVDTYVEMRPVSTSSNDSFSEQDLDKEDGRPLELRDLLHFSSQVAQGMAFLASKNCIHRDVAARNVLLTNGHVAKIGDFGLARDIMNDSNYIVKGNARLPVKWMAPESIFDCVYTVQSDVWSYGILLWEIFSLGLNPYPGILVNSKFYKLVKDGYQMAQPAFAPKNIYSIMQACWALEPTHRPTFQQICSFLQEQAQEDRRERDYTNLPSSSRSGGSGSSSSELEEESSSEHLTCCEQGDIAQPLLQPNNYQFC
Sequence of NTRK1 (TRKA) (P04629 33-796): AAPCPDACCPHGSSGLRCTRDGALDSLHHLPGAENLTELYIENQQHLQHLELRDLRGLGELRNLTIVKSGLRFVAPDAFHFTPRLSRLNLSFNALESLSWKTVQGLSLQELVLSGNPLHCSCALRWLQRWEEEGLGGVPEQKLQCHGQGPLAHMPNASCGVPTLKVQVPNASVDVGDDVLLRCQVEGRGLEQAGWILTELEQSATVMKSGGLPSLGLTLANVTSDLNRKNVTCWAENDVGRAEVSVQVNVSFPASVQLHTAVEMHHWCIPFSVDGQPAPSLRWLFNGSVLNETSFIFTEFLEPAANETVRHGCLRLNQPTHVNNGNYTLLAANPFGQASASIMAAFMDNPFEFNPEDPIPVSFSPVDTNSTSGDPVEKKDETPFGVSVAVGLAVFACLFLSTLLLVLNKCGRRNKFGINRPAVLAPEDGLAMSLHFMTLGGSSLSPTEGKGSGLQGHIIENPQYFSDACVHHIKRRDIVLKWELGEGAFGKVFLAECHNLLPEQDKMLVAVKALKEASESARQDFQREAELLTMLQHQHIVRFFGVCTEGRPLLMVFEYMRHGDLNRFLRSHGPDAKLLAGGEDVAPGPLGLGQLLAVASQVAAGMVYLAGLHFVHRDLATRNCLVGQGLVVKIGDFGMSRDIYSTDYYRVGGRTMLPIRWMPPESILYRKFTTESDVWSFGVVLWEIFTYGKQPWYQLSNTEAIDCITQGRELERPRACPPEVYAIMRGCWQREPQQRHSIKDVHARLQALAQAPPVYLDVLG

Which inhibition at 0.1 µM ([1]; 100 nM) does the source give for CCc1cc(NC(=O)NCc2ccc(-c3cc(NC(=O)c4ccc(CN5CCN(C)CC5)cc4)[nH]n3)cc2)no1 [BPR1J-340, N1-(3-4-[([(5-ethyl-3-isoxazolyl)amino]carbonylamino)methyl]phenyl-1H-5-pyrazolyl)-4-[(4-methylpiperazino)methyl]benzamide] here?
The inhibition at 0.1 µM was 73%.

And the IC50 ([1]; Invitrogen SelectScreen kinase assay)?
Its IC50 is 78 nM.

What about the inhibition at 0.1 µM ([2]; NTRK1 (TRKA), 100 nM) of the same molecule?
The inhibition at 0.1 µM was 89%.

And the IC50 ([2]; TRKA, Invitrogen SelectScreen kinase assay)?
The IC50 was 8 nM.

And the “STAT5 phosphorylation at Tyr694” value [3]?
The value was “completely block”.
